From ChEMBL document CHEMBL4266002, “Acyloxybenzyl and Alkoxyalkyl Prodrugs of a Fosmidomycin Surrogate as Antimalarial and Antitubercular Agents” (ACS Med Chem Lett, 2018) come the findings set out here.

One data set relates to MRC5. The experiment in a line: Cytotoxicity against human MRC5 cells after 24 hrs by resazurin assay. The data set is classed as cell-based. The following applies: MRC5, 24 h. Background: Alamar Blue is a resazurin reagent that responds to reducing activity.
For data set [1], the system named is Mycobacterium tuberculosis. As to the kind of experiment: Antimicrobial activity against Mycobacterium tuberculosis H37Ra ATCC 25177 after 7 days by luminometric method. In kind it is functional, organism-based. The following applies: H37Ra ATCC 25177, 168 h.
A further data set deals with Plasmodium falciparum. As to the kind of experiment: Antiplasmodial activity against chloroquine-resistant Plasmodium falciparum K1 infected in human erythrocytes measured after 72 hrs Malstat/NBT reagent based assay. The data set is classed as functional, organism-based. The following applies: K1, 72 h.
Data set [2] can be described thus: Selectivity index, ratio of IC50 for human MRC5 cells to IC50 for chloroquine-resistant Plasmodium falciparum K1 infected in human erythrocytes. The following applies: read-out: Ratio IC50. In kind it is toxicity, cell-based.
Data set [3] can be described thus: Selectivity index, ratio of IC50 for human MRC5 cells to IC50 for Mycobacterium tuberculosis H37Ra ATCC 25177. In kind it is toxicity. The following applies: read-out: Ratio IC50.
Data set [4] can be described thus: Stability in human serum at 1 mM after 30 to 60 mins by UPLC method. The data set is classed as ADME, cell-free. The following applies: 1000 µM.
A short description of data set [5]: Oral bioavailability in patient with malaria. In kind it is ADME, organism-based. The following applies: human, in vivo.
Data set [6] is described as follows: Half life in patient with malaria. The data set is classed as ADME, organism-based. The following applies: human, in vivo.

`CCCCCCCCCCCCCCCCOCCCOP(=O)(CCCC(=O)N(C)O)OCCCOCCCCCCCCCCCCCCCC`: the values for the IC50 (in the data set with MRC5; in data set [1]; with Plasmodium falciparum) were over 64000 nM, over 64000 nM and 42000 nM, respectively. The selectivity ratio in data set [2] is over 1.5.

Consider `CCCCCCCCC(=O)Oc1ccc(COP(=O)(CCCC(=O)N(C)O)OCc2ccc(OC(=O)CCCCCCCC)cc2)cc1`, for which the IC50 – broadly, the concentration that inhibits the measured activity by half – was 12600 nM in the data set with MRC5, 1760 nM in data set [1] and 300 nM with Plasmodium falciparum. The figures for the selectivity ratio in data set [3] and in data set [2] were 7.6 and 42, respectively. In data set [4], the Stability entry was “Stable”.

On to `O=CN(O)CCCP(=O)([O-])O.[Na+]` [FOSMIDOMYCIN SODIUM], for which the IC50 (in the data set with MRC5; in data set [1]) was over 64000 nM each time. In addition, the bioavailability (commonly dose-corrected exposure relative to a reference, in per cent) in data set [5] turned out to be 30%. For the same compound, the half-life – broadly, the time needed for the level to fall by half in the phase considered – in data set [6] was 2 h.

With `CC(=O)Oc1ccc(COP(=O)(CCCC(=O)N(C)O)OCc2ccc(OC(C)=O)cc2)cc1`, the results for the half-maximal inhibitory concentration (IC50) (in the data set on MRC5; in data set [1]; in the data set with Plasmodium falciparum) were 15500 nM, 19700 nM and 490 nM, respectively. The selectivity ratio in data set [3] is 0.8; in data set [2], 32. In addition, the Stability result in data set [4] is recorded as “Stable”.

For `CN(O)C(=O)CCCP(=O)(OCc1ccc(OC(=O)C(C)(C)C)cc1)OCc1ccc(OC(=O)C(C)(C)C)cc1`, the figures for the concentration for half-maximal inhibition (IC50) (in the data set with MRC5; in data set [1]; in the data set on Plasmodium falciparum) were 980 nM, 430 nM and 160 nM, respectively. For the same compound, the selectivity ratio in data set [3] was found to be 2.3; in data set [2], 6.1. In data set [4], the Stability result is reported as “Stable”.

Turning to `CC(C)C(=O)Oc1ccc(COP(=O)(CCCC(=O)N(C)O)OCc2ccc(OC(=O)C(C)C)cc2)cc1`, the 50% inhibitory concentration (IC50) was determined as 990 nM in the data set with MRC5, 640 nM in data set [1] and 140 nM in the data set with Plasmodium falciparum. In addition, the selectivity ratio amounted to 1.6 in data set [3] and 7.3 in data set [2]. Further, in data set [4], the Stability result is “Stable”.

Take `CN(O)C(=O)CCCP(=O)(O)O`: the IC50 in data set [1] was over 64000 nM.

`CC(C)OC(=O)OCOP(=O)(CCCC(=O)N(C)O)OCOC(=O)OC(C)C`: the results for the IC50 (in the data set with MRC5; in data set [1]; in the data set on Plasmodium falciparum) were 55700 nM, over 64000 nM and 80 nM, respectively. Besides, the selectivity ratio in data set [2] came to 743. Further, the Stability entry in data set [4] was “Stable”.

For `CN(O)C(=O)CCCP(=O)(OCc1ccc(OC(=O)c2ccccc2)cc1)OCc1ccc(OC(=O)c2ccccc2)cc1`, the IC50 is 610 nM in the data set on MRC5, 420 nM in data set [1] and 30 nM with Plasmodium falciparum. For the same compound, the selectivity ratio in data set [3] was 1.5; in data set [2], 20. The Stability entry in data set [4] is reported as “Stable”.

`CCCCOCCCOP(=O)(O)CCCC(=O)N(C)O`: the IC50 in the data set with MRC5 is over 64000 nM; in data set [1], over 64000 nM; in the data set with Plasmodium falciparum, 16000 nM. Besides, the selectivity ratio in data set [2] is over 4.

For the compound `CCCCCCCCOCCCOP(=O)(O)CCCC(=O)N(C)O`, the IC50 in the data set on MRC5 is over 64000 nM; in data set [1], over 64000 nM; in the data set with Plasmodium falciparum, 1900 nM. Further, the selectivity ratio in data set [2] was over 34.

On to `CCCCCCCCCCCCCCCCOCCCOP(=O)(O)CCCC(=O)N(C)O`, for which the figures for the IC50 (with MRC5; in data set [1]; in the data set with Plasmodium falciparum) were 24500 nM, over 64000 nM and 950 nM, respectively. Besides, the selectivity ratio in data set [2] came to 26.

In turn, `CC(=O)N(O)CCCP(=O)(O)O` [FR-900098] returned an IC50 in data set [1] of over 64000 nM.

On to `CCCCCCCCCCCCOCCCOP(=O)(O)CCCC(=O)N(C)O`, for which the figures for the IC50 (with MRC5; in data set [1]; with Plasmodium falciparum) were 55900 nM, over 64000 nM and 820 nM, respectively. For the same compound, in data set [2], the selectivity ratio is 68.

Take `CN(O)C(=O)CCCP(=O)(OCOC(=O)C(C)(C)C)OCOC(=O)C(C)(C)C`: the values for the IC50 (in the data set on MRC5; in data set [1]; in the data set on Plasmodium falciparum) were over 64000 nM, 44300 nM and 730 nM, respectively. In addition, the selectivity ratio is over 1.4 in data set [3] and over 88 in data set [2]. The Stability result in data set [4] is “Stable”.
